Test results: publication PMC4929166, “Pharmacological evaluation of synthetic cannabinoids identified as constituents of spice” (Forensic Toxicology, 2016)

Legend:
human GPR55 = target: T1, human GPR55 (Homo sapiens, UniProt Q9Y2T6); assay: β-Arrestin recruitment assay (PathHunter) at GPR55; assay type: cell-based; details: for IC50: Human GPR55 IC50, β-arrestin assay, antagonist mode; for Human GPR55 % activation / Human GPR55 % inhibition: β-arrestin assay; for Human GPR55 % activation: percent in brackets beside EC50 >10 µM; for Human GPR55 % inhibition: percent in brackets beside IC50
T1 construct: β-galactosidase enzyme fragment (PathHunter complementation tag)
Method: (§1) Recruitment of β-arrestin to the respective receptor was detected by using β-galactosidase enzyme fragment complementation technology (β-arrestin PathHunter™ assay, DiscoverX, Fremont, CA, USA) as previously described. Data were obtained from three independent experiments, performed in duplicates. Data were analyzed using Graph Pad Prism Version 4.02 (San Diego, CA, USA).

human GPR18 = target: T2, human GPR18 (Homo sapiens, UniProt Q14330); assay: β-Arrestin recruitment assay (PathHunter) at GPR18; assay type: cell-based; details: for Human GPR18 % activation / Human GPR18 % inhibition: β-arrestin assay; for Human GPR18 % activation: percent in brackets beside EC50 >10 µM; for Human GPR18 % inhibition: percent in brackets beside IC50
T2 construct: β-galactosidase enzyme fragment (PathHunter complementation tag)
T2 sequence (Q14330 1-331): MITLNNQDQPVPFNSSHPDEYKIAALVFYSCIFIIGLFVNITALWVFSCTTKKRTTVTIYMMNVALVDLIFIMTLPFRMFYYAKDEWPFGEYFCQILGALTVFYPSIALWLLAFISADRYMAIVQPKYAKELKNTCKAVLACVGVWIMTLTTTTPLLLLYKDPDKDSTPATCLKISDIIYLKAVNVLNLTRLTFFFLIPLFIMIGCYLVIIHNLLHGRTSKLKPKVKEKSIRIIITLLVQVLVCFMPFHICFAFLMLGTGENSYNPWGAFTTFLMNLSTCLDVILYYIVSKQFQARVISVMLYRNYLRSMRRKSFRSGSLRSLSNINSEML
Method: as §1

CB1 receptor = CB1 receptor (Homo sapiens, UniProt P21554); assay: biochemical; assay type: binding; design: expressed in transfected cells; host or cells: CHO cells (membrane preparation); details: for Ki: versus 0.1 nM [3H]CP55,940, CHO cell membranes, mean ± SEM of three to five experiments, read-out: Ki ± SEM Human CB1
CB2 receptor = CB2 receptor (Homo sapiens, UniProt P34972); assay: biochemical; assay type: binding; design: expressed in transfected cells; host or cells: CHO cells (membrane preparation); details: for CB2 selectivity Ki CB1/KiCB2: Table S1, selectivity index from Ki values; for Ki: versus 0.1 nM [3H]CP55,940, CHO cell membranes, mean ± SEM of three to five experiments, read-out: Ki ± SEM Human CB2
Chain of CB2 receptor (P34972 whole entry): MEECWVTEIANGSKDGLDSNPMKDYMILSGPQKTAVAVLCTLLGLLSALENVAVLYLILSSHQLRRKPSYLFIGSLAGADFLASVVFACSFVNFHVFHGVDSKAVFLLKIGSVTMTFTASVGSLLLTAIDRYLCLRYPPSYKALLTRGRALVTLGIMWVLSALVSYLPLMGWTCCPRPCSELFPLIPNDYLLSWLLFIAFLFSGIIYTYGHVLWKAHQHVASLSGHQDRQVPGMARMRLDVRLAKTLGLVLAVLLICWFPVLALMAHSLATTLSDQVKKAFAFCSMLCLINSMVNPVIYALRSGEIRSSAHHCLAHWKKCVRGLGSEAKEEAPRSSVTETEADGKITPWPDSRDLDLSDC

Chain of CB1 receptor (P21554 whole entry): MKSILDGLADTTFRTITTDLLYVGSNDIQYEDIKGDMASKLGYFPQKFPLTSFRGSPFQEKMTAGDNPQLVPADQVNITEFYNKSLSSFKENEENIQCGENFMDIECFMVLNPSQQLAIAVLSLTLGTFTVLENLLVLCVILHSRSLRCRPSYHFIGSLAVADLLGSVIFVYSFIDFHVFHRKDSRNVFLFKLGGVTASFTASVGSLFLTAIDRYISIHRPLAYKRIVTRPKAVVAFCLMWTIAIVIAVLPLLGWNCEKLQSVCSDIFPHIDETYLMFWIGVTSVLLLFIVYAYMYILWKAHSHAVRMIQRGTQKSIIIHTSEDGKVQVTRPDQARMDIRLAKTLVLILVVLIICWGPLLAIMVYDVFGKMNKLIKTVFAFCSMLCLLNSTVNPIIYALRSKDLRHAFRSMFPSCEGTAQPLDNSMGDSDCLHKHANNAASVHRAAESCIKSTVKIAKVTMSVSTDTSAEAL
T1 sequence (Q9Y2T6 whole entry, the tested form may be a part): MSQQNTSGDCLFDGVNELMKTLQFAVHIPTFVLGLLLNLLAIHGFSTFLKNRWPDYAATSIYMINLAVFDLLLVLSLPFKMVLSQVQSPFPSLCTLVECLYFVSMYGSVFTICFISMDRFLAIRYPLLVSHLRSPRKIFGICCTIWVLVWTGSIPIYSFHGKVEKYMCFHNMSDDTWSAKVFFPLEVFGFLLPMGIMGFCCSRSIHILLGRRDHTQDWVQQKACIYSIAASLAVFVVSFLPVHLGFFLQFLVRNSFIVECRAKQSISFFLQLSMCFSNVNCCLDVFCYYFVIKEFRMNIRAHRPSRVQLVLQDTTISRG

**Q.** How did the EC50 (human GPR55) turn out when `CCCCCn1nc(C(=O)c2cccc3ccccc23)c2ccccc21` [Compound 28, THJ018] was run?
**A.** > 10000 nM

**Q.** And the IC50 (human GPR55)?
**A.** 8200 ± 2110 nM

**Q.** And the “Human GPR55 % activation” value (human GPR55)?
**A.** 6%

**Q.** And the EC50 (human GPR18)?
**A.** > 10000 nM

**Q.** And the IC50 (human GPR18)?
**A.** > 10000 nM

**Q.** What about the “Human GPR18 % activation” value (human GPR18) of the same molecule?
**A.** 33%

**Q.** What about the “Human GPR18 % inhibition” value (human GPR18) of the same molecule?
**A.** −5%

**Q.** And the Ki (CB1 receptor)?
**A.** 5.84 ± 1.32 nM

**Q.** And the “CB2 selectivity Ki CB1/KiCB2” value (CB2 receptor)?
**A.** 1.3

**Q.** And the Ki (CB2 receptor)?
**A.** 4.57 ± 0.28 nM

**Q.** `O=C(c1cccc2ccccc12)c1nn(CCCCCF)c2ccccc12` [Compound 29, THJ2201] was tested. Which EC50 (human GPR55) did it give?
**A.** > 10000 nM

**Q.** And the IC50 (human GPR55)?
**A.** > 10000 nM

**Q.** What about the “Human GPR55 % activation” value (human GPR55) of the same molecule?
**A.** −1%

**Q.** What about the “Human GPR55 % inhibition” value (human GPR55) of the same molecule?
**A.** 47%

**Q.** And the EC50 (human GPR18)?
**A.** > 10000 nM

**Q.** What about the IC50 (human GPR18) of the same molecule?
**A.** > 10000 nM

**Q.** And the “Human GPR18 % activation” value (human GPR18)?
**A.** 18%

**Q.** What about the “Human GPR18 % inhibition” value (human GPR18) of the same molecule?
**A.** 21%

**Q.** And the “CB1 selectivity Ki CB2/KiCB1” value (CB1 receptor; Table S1, selectivity index from Ki values)?
**A.** 1.0

**Q.** And the Ki (CB1 receptor)?
**A.** 1.34 ± 0.54 nM

**Q.** What about the “CB2 selectivity Ki CB1/KiCB2” value (CB2 receptor) of the same molecule?
**A.** 1.0

**Q.** What about the Ki (CB2 receptor) of the same molecule?
**A.** 1.32 ± 0.39 nM

**Q.** For `Cc1ccc(C(=O)c2cn(CCCCCF)c3ccccc23)c2ccccc12` [Compound 30, MAM-2201], which Ki (CB1 receptor) is on record?
**A.** 1.58 ± 0.76 nM

**Q.** And the “CB2 selectivity Ki CB1/KiCB2” value (CB2 receptor)?
**A.** 2.7

**Q.** What about the Ki (CB2 receptor) of the same molecule?
**A.** 0.582 ± 0.123 nM

**Q.** `Cc1ccc(C(=O)c2cn(CCCC(C)F)c3ccccc23)c2ccccc12` (stereo not drawn) [Compound 32, MAM-2201-4-fluoropentyl-isomer] was tested. Which EC50 (human GPR55) did it give?
**A.** > 10000 nM

**Q.** And the IC50 (human GPR55)?
**A.** 3070 ± 1480 nM

**Q.** What about the “Human GPR55 % activation” value (human GPR55) of the same molecule?
**A.** −41%

**Q.** And the Ki (CB1 receptor)?
**A.** 3.23 ± 1.56 nM

**Q.** And the “CB2 selectivity Ki CB1/KiCB2” value (CB2 receptor)?
**A.** 4.0

**Q.** And the Ki (CB2 receptor)?
**A.** 0.808 ± 0.057 nM

**Q.** What does the source list for `CCCCCn1cc(C(=O)c2ccccc2OC)c2ccccc21` [Compound 33, RCS-4]?
**A.** Ki (CB1 receptor): 26.6 ± 6.6 nM; CB2 selectivity Ki CB1/KiCB2 (CB2 receptor): 9.3; Ki (CB2 receptor): 2.86 ± 0.39 nM

**Q.** What does the source list for `COc1ccccc1CC(=O)c1cn(CCC2CCCCC2)c2ccccc12` [Compound 34, RCS-8]?
**A.** Ki (CB1 receptor): 81.3 ± 15.8 nM; CB2 selectivity Ki CB1/KiCB2 (CB2 receptor): 5.6; Ki (CB2 receptor): 14.6 ± 6.1 nM

**Q.** With `O=C(c1cn(CCCCCF)c2ccccc12)C12CC3CC(CC(C3)C1)C2` [Compound 36, 5F-AB001] as the molecule, how does the EC50 (human GPR55) read?
**A.** > 10000 nM

**Q.** And the IC50 (human GPR55)?
**A.** ~10000 nM

**Q.** What about the “Human GPR55 % activation” value (human GPR55) of the same molecule?
**A.** 19%

**Q.** What about the “Human GPR55 % inhibition” value (human GPR55) of the same molecule?
**A.** 48%

**Q.** What about the EC50 (human GPR18) of the same molecule?
**A.** > 10000 nM

**Q.** And the IC50 (human GPR18)?
**A.** ~10000 nM

**Q.** What about the “Human GPR18 % activation” value (human GPR18) of the same molecule?
**A.** −6%

**Q.** What about the Ki (CB1 receptor) of the same molecule?
**A.** 12.3 ± 3 nM

**Q.** What about the “CB2 selectivity Ki CB1/KiCB2” value (CB2 receptor) of the same molecule?
**A.** 8.4

**Q.** What about the Ki (CB2 receptor) of the same molecule?
**A.** 1.47 ± 1.03 nM

**Q.** Which results are given for `CCCC(F)Cn1cc(C(=O)C2C(C)(C)C2(C)C)c2ccccc21` (stereo not drawn) [Compound 39, XLR-11-2-fluoropentyl-isomer]?
**A.** EC50 (human GPR55): > 10000 nM; IC50 (human GPR55): 5690 ± 1950 nM; Human GPR55 % activation (human GPR55): −8%; EC50 (human GPR18): > 10000 nM; IC50 (human GPR18): > 10000 nM; Human GPR18 % activation (human GPR18): 24%; Human GPR18 % inhibition (human GPR18): 29%; Ki (CB1 receptor): 59.5 ± 16.9 nM; CB2 selectivity Ki CB1/KiCB2 (CB2 receptor): 32.5; Ki (CB2 receptor): 1.83 ± 0.47 nM

**Q.** `CC1(C)C(C(=O)c2nn(CCCCCF)c3ccccc23)C1(C)C` [Compound 40, FAB-144] was tested. Which EC50 (human GPR55) did it give?
**A.** > 10000 nM

**Q.** And the IC50 (human GPR55)?
**A.** ~10000 nM

**Q.** What about the “Human GPR55 % activation” value (human GPR55) of the same molecule?
**A.** 5%

**Q.** And the “Human GPR55 % inhibition” value (human GPR55)?
**A.** 77%

**Q.** And the EC50 (human GPR18)?
**A.** > 10000 nM

**Q.** And the IC50 (human GPR18)?
**A.** ~10000 nM

**Q.** What about the “Human GPR18 % activation” value (human GPR18) of the same molecule?
**A.** 2%

**Q.** What about the “Human GPR18 % inhibition” value (human GPR18) of the same molecule?
**A.** 57%

**Q.** What about the Ki (CB1 receptor) of the same molecule?
**A.** 17.5 ± 1.1 nM

**Q.** What about the “CB2 selectivity Ki CB1/KiCB2” value (CB2 receptor) of the same molecule?
**A.** 38.9

**Q.** And the Ki (CB2 receptor)?
**A.** 0.45 ± 0.111 nM

**Q.** What does the source list for `CC1(C)C(C(=O)c2cn(Cc3ccc(F)cc3)c3ccccc23)C1(C)C` [Compound 42, FUB-144]?
**A.** EC50 (human GPR55): > 10000 nM; IC50 (human GPR55): ~10000 nM; Human GPR55 % activation (human GPR55): −3%; Human GPR55 % inhibition (human GPR55): 62%; EC50 (human GPR18): > 10000 nM; IC50 (human GPR18): ~10000 nM; Human GPR18 % activation (human GPR18): −12%; Human GPR18 % inhibition (human GPR18): 74%; Ki (CB1 receptor): 14 ± 2.7 nM; CB2 selectivity Ki CB1/KiCB2 (CB2 receptor): 16.5; Ki (CB2 receptor): 0.846 ± 0.209 nM

**Q.** `Cc1c(C(=O)C2C(C)(C)C2(C)C)c2ccccc2n1CCCCCF` [Compound 47, M-144] was tested. Which EC50 (human GPR55) did it give?
**A.** > 10000 nM

**Q.** And the IC50 (human GPR55)?
**A.** ~10000 nM

**Q.** What about the “Human GPR55 % activation” value (human GPR55) of the same molecule?
**A.** −5%

**Q.** What about the “Human GPR55 % inhibition” value (human GPR55) of the same molecule?
**A.** 86%

**Q.** And the EC50 (human GPR18)?
**A.** > 10000 nM

**Q.** What about the IC50 (human GPR18) of the same molecule?
**A.** ~10000 nM

**Q.** And the “Human GPR18 % activation” value (human GPR18)?
**A.** −7%

**Q.** And the “Human GPR18 % inhibition” value (human GPR18)?
**A.** 67%

**Q.** And the Ki (CB1 receptor)?
**A.** 19.4 ± 7.8 nM

**Q.** And the “CB2 selectivity Ki CB1/KiCB2” value (CB2 receptor)?
**A.** 4.2

**Q.** And the Ki (CB2 receptor)?
**A.** 4.59 ± 1.48 nM
